From PubChem BioAssay AID1259407 (Chemical Carcinogenesis Research Information System (CCRIS), 2018) come the findings set out here.

The structures appear in SMILES notation. Calls of active or inactive are those of the source. No rule for the calls is given here.

The data set relates to CCRIS mutagenicity, Ames/micronucleus/aberration tests. As to the kind of experiment: CCRIS mutagenicity studies.
Setting [1] is: Test System: AMES SALMONELLA TYPHIMURIUM, Strain/Indicator: TA98, Metabolic Activation: NONE, Method: PREINCUBATION
Where [2] appears, read: Test System: AMES SALMONELLA TYPHIMURIUM, Strain/Indicator: TA98, Metabolic Activation: NONE, Method: STANDARD PLATE.
The mark [3] stands for this setting: Test System: AMES SALMONELLA TYPHIMURIUM, Strain/Indicator: TA98, Metabolic Activation: RAT, LIVER, S-9, AROCLOR 1254, Method: STANDARD PLATE.
The mark [4] stands for this setting: Test System: AMES SALMONELLA TYPHIMURIUM, Strain/Indicator: TA100, Metabolic Activation: NONE, Method: PREINCUBATION
The mark [5] stands for this setting: Test System: AMES SALMONELLA TYPHIMURIUM, Strain/Indicator: TA100, Metabolic Activation: NONE, Method: STANDARD PLATE.
[6] abbreviates: Test System: AMES SALMONELLA TYPHIMURIUM, Strain/Indicator: TA100, Metabolic Activation: RAT, LIVER, S-9, AROCLOR 1254, Method: STANDARD PLATE.
Where [7] appears, read: Test System: AMES SALMONELLA TYPHIMURIUM, Strain/Indicator: TA1535, Metabolic Activation: NONE, Method: PREINCUBATION
Where [8] appears, read: Test System: AMES SALMONELLA TYPHIMURIUM, Strain/Indicator: TA1535, Metabolic Activation: NONE, Method: STANDARD PLATE.
Where [9] appears, read: Test System: AMES SALMONELLA TYPHIMURIUM, Strain/Indicator: TA1535, Metabolic Activation: RAT, LIVER, S-9, AROCLOR 1254, Method: STANDARD PLATE.
The mark [10] stands for this setting: Test System: AMES SALMONELLA TYPHIMURIUM, Strain/Indicator: TA1537, Metabolic Activation: NONE, Method: PREINCUBATION
Where [11] appears, read: Test System: AMES SALMONELLA TYPHIMURIUM, Strain/Indicator: TA1537, Metabolic Activation: NONE, Method: STANDARD PLATE.
Where [12] appears, read: Test System: AMES SALMONELLA TYPHIMURIUM, Strain/Indicator: TA1537, Metabolic Activation: RAT, LIVER, S-9, AROCLOR 1254, Method: STANDARD PLATE.

As to `Nc1nc2ncc(CNc3ccc(C(=O)N[C@@H](CCC(=O)O)C(=O)O)cc3)nc2c(=O)[nH]1`, the mutagenic call reads like this: (Test System: AMES SALMONELLA TYPHIMURIUM, Strain/Indicator: TA97A, Metabolic Activation: NONE, Method: PREINCUBATION) “inactive; negative”; (Test System: AMES SALMONELLA TYPHIMURIUM, Strain/Indicator: TA97A, Metabolic Activation: RAT, LIVER, S-9, AROCLOR 1254, Method: PREINCUBATION) “inactive; negative”; (Test System: AMES SALMONELLA TYPHIMURIUM, Strain/Indicator: TA102, Metabolic Activation: NONE, Method: PREINCUBATION) “inactive; negative”; (Test System: AMES SALMONELLA TYPHIMURIUM, Strain/Indicator: TA102, Metabolic Activation: RAT, LIVER, S-9, AROCLOR 1254, Method: PREINCUBATION) “inactive; negative”.

Consider `O=c1[nH]c(=O)[nH]c(=O)[nH]1`, for which the mutagenic call is “inactive; negative” (Test System: AMES SALMONELLA TYPHIMURIUM, Strain/Indicator: TA98, Metabolic Activation: HAMSTER, LIVER, S-9, AROCLOR 1254, Method: PREINCUBATION); “inactive; negative” under setting [1]; “inactive; negative” under setting [2]; “inactive; negative” (Test System: AMES SALMONELLA TYPHIMURIUM, Strain/Indicator: TA98, Metabolic Activation: RAT, LIVER, S-9, AROCLOR 1254, Method: PREINCUBATION); “inactive; negative” under setting [3]; “inactive; negative” (Test System: AMES SALMONELLA TYPHIMURIUM, Strain/Indicator: TA100, Metabolic Activation: HAMSTER, LIVER, S-9, AROCLOR 1254, Method: PREINCUBATION). Besides, the mutagenic call under setting [4] was “inactive; negative”; the mutagenic call under setting [5] was “inactive; negative”; the mutagenic call (Test System: AMES SALMONELLA TYPHIMURIUM, Strain/Indicator: TA100, Metabolic Activation: RAT, LIVER, S-9, AROCLOR 1254, Method: PREINCUBATION) was “inactive; negative”; the mutagenic call under setting [6] was “inactive; negative”; the mutagenic call (Test System: AMES SALMONELLA TYPHIMURIUM, Strain/Indicator: TA1535, Metabolic Activation: HAMSTER, LIVER, S-9, AROCLOR 1254, Method: PREINCUBATION) is “inactive; negative”; the mutagenic call under setting [7] is “inactive; negative”. Besides, the mutagenic call under setting [8] was “inactive; negative”; the mutagenic call (Test System: AMES SALMONELLA TYPHIMURIUM, Strain/Indicator: TA1535, Metabolic Activation: RAT, LIVER, S-9, AROCLOR 1254, Method: PREINCUBATION) is “inactive; negative”; the mutagenic call under setting [9] was “inactive; negative”; the mutagenic call (Test System: AMES SALMONELLA TYPHIMURIUM, Strain/Indicator: TA1537, Metabolic Activation: HAMSTER, LIVER, S-9, AROCLOR 1254, Method: PREINCUBATION) is “inactive; negative”; the mutagenic call under setting [10] is “inactive; negative”; the mutagenic call under setting [11] is “inactive; negative”. For the same compound, the mutagenic call by setting is: (Test System: AMES SALMONELLA TYPHIMURIUM, Strain/Indicator: TA1537, Metabolic Activation: RAT, LIVER, S-9, AROCLOR 1254, Method: PREINCUBATION) “inactive; negative”; under setting [12], “inactive; negative”; (Test System: MOUSE LYMPHOMA, Strain/Indicator: L5178Y (TK+/TK-), Metabolic Activation: NONE, Method: SUSPENSION/PLATE) “inactive; negative”; (Test System: MOUSE LYMPHOMA, Strain/Indicator: L5178Y (TK+/TK-), Metabolic Activation: RAT, LIVER, S-9, AROCLOR 1254, Method: SUSPENSION/PLATE) “inactive; negative”.

As for `COC(=O)[C@H]1[C@H]2C[C@@H]3c4[nH]c5cc(OC)ccc5c4CCN3C[C@H]2C[C@@H](OC(=O)/C=C/c2cc(OC)c(OC)c(OC)c2)[C@@H]1OC`, the mutagenic call runs as follows: (Test System: AMES SALMONELLA TYPHIMURIUM, Strain/Indicator: TA97, Metabolic Activation: HAMSTER, LIVER, S-9, AROCLOR 1254 (10 OR 30%), Method: PREINCUBATION) “inactive; negative”; (Test System: AMES SALMONELLA TYPHIMURIUM, Strain/Indicator: TA97, Metabolic Activation: NONE, Method: PREINCUBATION) “inactive; negative”; (Test System: AMES SALMONELLA TYPHIMURIUM, Strain/Indicator: TA97, Metabolic Activation: RAT, LIVER, S-9, AROCLOR 1254 (10 OR 30%), Method: PREINCUBATION) “inactive; negative”; (Test System: AMES SALMONELLA TYPHIMURIUM, Strain/Indicator: TA98, Metabolic Activation: HAMSTER, LIVER, S-9, AROCLOR 1254 (10 OR 30%), Method: PREINCUBATION) “inactive; negative”; under setting [1], “inactive; negative”; (Test System: AMES SALMONELLA TYPHIMURIUM, Strain/Indicator: TA98, Metabolic Activation: RAT, LIVER, S-9, AROCLOR 1254 (10 OR 30%), Method: PREINCUBATION) “inactive; negative”. Moreover, the mutagenic call (Test System: AMES SALMONELLA TYPHIMURIUM, Strain/Indicator: TA100, Metabolic Activation: HAMSTER, LIVER, S-9, AROCLOR 1254 (10 OR 30%), Method: PREINCUBATION) was “inactive; negative”; the mutagenic call under setting [4] was “inactive; negative”; the mutagenic call (Test System: AMES SALMONELLA TYPHIMURIUM, Strain/Indicator: TA100, Metabolic Activation: RAT, LIVER, S-9, AROCLOR 1254 (10 OR 30%), Method: PREINCUBATION) was “inactive; negative”; the mutagenic call (Test System: AMES SALMONELLA TYPHIMURIUM, Strain/Indicator: TA1535, Metabolic Activation: HAMSTER, LIVER, S-9, AROCLOR 1254 (10 OR 30%), Method: PREINCUBATION) was “inactive; negative”; the mutagenic call under setting [7] is “inactive; negative”; the mutagenic call (Test System: AMES SALMONELLA TYPHIMURIUM, Strain/Indicator: TA1535, Metabolic Activation: RAT, LIVER, S-9, AROCLOR 1254 (10 OR 30%), Method: PREINCUBATION) was “inactive; negative”. Further, the mutagenic call reads like this: (Test System: AMES SALMONELLA TYPHIMURIUM, Strain/Indicator: TA1537, Metabolic Activation: HAMSTER, LIVER, S-9, AROCLOR 1254 (30%), Method: PREINCUBATION) “inactive; negative”; under setting [10], “inactive; negative”; (Test System: AMES SALMONELLA TYPHIMURIUM, Strain/Indicator: TA1537, Metabolic Activation: RAT, LIVER, S-9, AROCLOR 1254 (30%), Method: PREINCUBATION) “inactive; negative”.

`COc1ccc(NC(C)=O)cc1N`: the mutagenic call is “active; positive (structural changes); authors report equivocal results for ploidy chang” (End Point: IN VITRO CHROMOSOMAL ABERRATIONS, Test System: CHL CELLS, Metabolic Activation: RAT, LIVER, S-9, SODIUM PHENOBARBITAL AND 5,6-BENZOFLAVONE); “inactive; negative” under setting [1]; “active; positive” (Test System: AMES SALMONELLA TYPHIMURIUM, Strain/Indicator: TA98, Metabolic Activation: RAT, LIVER, S-9, PHENOBARBITAL AND BETA-NAPHTHOFLAVONE, Method: PREINCUBATION); “inactive; negative” under setting [4]; “active; positive” (Test System: AMES SALMONELLA TYPHIMURIUM, Strain/Indicator: TA100, Metabolic Activation: RAT, LIVER, S-9, PHENOBARBITAL AND BETA-NAPHTHOFLAVONE, Method: PREINCUBATION).

`O=C(O)c1cc(Cl)cc2cccnc12`: the mutagenic call by setting is: under setting [2], “inactive; negative”; under setting [3], “active; positive”; under setting [5], “inactive; negative”; under setting [6], “active; positive”; under setting [8], “inactive; negative”; under setting [9], “inactive; negative”. Moreover, the mutagenic call is “inactive; negative” under setting [11] and “active; positive” under setting [12].
